In patent US5723484A, “Benzopyran compounds as 5-HT2C receptor antagonists” (Adir et Compagnie, priority 1994, dated 1998):
Structures can show the parent of a compound that is named as a salt.

Legend:
5-HT2C receptors [1] = target: T1, 5-HT2C receptors (Sus scrofa, UniProt K7GSR7); assay: biochemical; assay type: binding, pig; conditions: for Ki: 5-HT2C Ki (nM), pig cerebral plexus, [3H]-mesulergine 1.0 nM, average of two to four determinations
T1 construct: pig cerebral plexus; from tissue; host or cells: pig cerebral plexus (own knowledge: choroid plexus)
T1 sequence (K7GSR7 1-457): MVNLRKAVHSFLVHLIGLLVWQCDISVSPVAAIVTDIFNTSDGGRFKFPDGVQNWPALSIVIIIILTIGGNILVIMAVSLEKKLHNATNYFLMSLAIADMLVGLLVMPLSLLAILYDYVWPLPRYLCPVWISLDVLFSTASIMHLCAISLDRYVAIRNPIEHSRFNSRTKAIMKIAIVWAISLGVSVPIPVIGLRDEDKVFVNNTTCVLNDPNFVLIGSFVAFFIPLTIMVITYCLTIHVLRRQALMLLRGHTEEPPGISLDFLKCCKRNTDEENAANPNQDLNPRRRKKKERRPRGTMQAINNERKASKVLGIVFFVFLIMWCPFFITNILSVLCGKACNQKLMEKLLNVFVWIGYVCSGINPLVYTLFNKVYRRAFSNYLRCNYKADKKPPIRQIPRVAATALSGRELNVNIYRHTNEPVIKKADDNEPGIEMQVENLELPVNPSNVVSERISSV
Experimental: (§1) Measurement of the in vitro affinity for the 5-HT2C and 5-HT2A receptors
(§2) The procedures described for the studies of the binding to the 5-HT2A and 5-HT2C receptors are exactly those described by H. Canton et al. (Eur. J. Pharmacol., 191, 93, 1990) and M. J. Millan et al. (J. Pharmacol. Exp. Ther., 262, 451-463, 1992). For 5-HT2A : rat frontal cortex/[^3 H]-ketanserin (1.0 nM). For 5-HT2C : pig […] plexus/[^3 H]-mesulergine (1.0 nM). The 50% inhibitory doses (ID50) are determined by regression analysis and the pKi values are calculated as follows: [formula] [L]=concentration of the Kd-Kd=dissociation constant Results

5-HT2C receptors [2] = assay: biochemical; assay type: binding, pig; conditions: for 5-HT2A /5-HT2C affinity ratio: 5-HT2A Ki (rat frontal cortex) over 5-HT2C Ki (pig cerebral plexus); for selectivity relative to the reference compound SB 200,646: 5-HT2C vs 5-HT2A, relative to SB 200,646
Experimental: as §1, §2

5-HT2A receptors = target: T2, 5-HT2A receptors (Rattus norvegicus, UniProt P14842); assay: In vitro affinity for the 5-HT2A receptors, rat frontal cortex/[3H]-ketanserin (1.0 nM); assay type: binding; conditions: rat frontal cortex, [3H]-ketanserin 1.0 nM; average of two to four determinations
T2 construct: rat frontal cortex; from tissue; host or cells: rat frontal cortex
T2 sequence (P14842 whole entry): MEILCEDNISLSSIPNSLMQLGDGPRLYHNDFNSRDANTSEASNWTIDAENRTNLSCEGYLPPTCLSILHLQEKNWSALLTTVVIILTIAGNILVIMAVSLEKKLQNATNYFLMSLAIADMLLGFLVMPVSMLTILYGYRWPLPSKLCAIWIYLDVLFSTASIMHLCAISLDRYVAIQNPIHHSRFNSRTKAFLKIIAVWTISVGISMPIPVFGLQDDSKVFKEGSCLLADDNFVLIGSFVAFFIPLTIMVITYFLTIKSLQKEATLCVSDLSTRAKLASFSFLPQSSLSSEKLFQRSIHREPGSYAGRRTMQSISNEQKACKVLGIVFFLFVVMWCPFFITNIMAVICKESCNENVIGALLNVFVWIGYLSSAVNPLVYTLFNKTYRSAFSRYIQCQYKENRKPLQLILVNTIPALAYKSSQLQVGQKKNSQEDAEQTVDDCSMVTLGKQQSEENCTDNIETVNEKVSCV
Experimental: as §1, §2

Structure (SMILES)	Ki (5-HT2C receptors [1]) [nM]	5-HT2A /5-HT2C affinity ratio (5-HT2C receptors [2])	Ki (5-HT2A receptors) [nM]	times more powerful antagonists than the reference compound SB 200,646 (5-HT2C receptors [1]; relative to SB 200,646) [times]	selectivity relative to the reference compound SB 200,646 (5-HT2C receptors [2])
c1ccc(CN2C[C@H]3COc4ccc5ccccc5c4[C@H]3C2)cc1 (relative stereo) [Example 37, cis-2-Benzyl-1,2,3,3a,4,11c-hexahydro-5-oxa-2-aza-cyclopenta[c]phenanthrenehydrochloride]	155	8.7	1350	–	–
Clc1ccc2c(c1)[C@H]1CN(Cc3ccccc3)C[C@H]1CO2 (relative stereo) [Example 24, cis-2-Benzyl-8-chloro-1,3,3a,4,9b-pentahydro-(1)-benzopyrano[3,4-c]pyrrolehydrochloride]	38	2.8	107	–	–
COc1cccc2c1[C@H]1CN(Cc3ccccc3)C[C@H]1CO2 (relative stereo) [Example 15, cis-2-Benzyl-9-methoxy-1,3,3a,4,9b-pentahydro-(1)-benzopyrano[3,4-c]pyrrolehydrochloride]	36.3	10.7	389	–	–
Cl.Oc1cccc2c1[C@H]1CN(Cc3ccccc3)C[C@@H]1CO2 (relative stereo) [Example 2, trans-2-Benzyl-9-hydroxy-1,3,3a,4,9b-pentahydro-(1)-benzopyrano[3,4-c]pyrrole hydrochloride]	195	2.5	490	–	–
Cl.c1ccc2c3c(ccc2c1)OC[C@@H]1CNC[C@H]31 (relative stereo) [Example 38, cis-1,2,3,3a,4,11c-Hexahydro-5-oxa-2-aza-cyclopenta[c]phenanthrene hydrochloride]	22.9	4.3	97.7	–	–
Cl.c1ccc(CN2C[C@@H]3COc4ccccc4[C@@H]3C2)cc1 (relative stereo) [Example 12, cis-2-Benzyl-1,3,3a,4,9b-pentahydro-(1)-benzopyrano[3,4-c]pyrrole hydrochloride]	832	4.3	3550	–	–
c1ccc2c(c1)OC[C@@H]1CN(CCOc3cccc4c3SCCC4)C[C@H]21 (relative stereo) [Example 19, cis-2-[2-(Thiochroman-8-yloxy)ethyl]-1,3,3a,9b-pentahydro-(1)-benzopyrano[3,4-c]pyrrole hydrochloride]	22	7.0	155	9	–
Cl.c1ccc2c3c(ccc2c1)OC[C@@H]1CNC[C@@H]31 (relative stereo) [Example 33, trans-1,2,3,3a,4,11c-Hexahydro-5-oxa-2-aza-cyclopenta[c]phenanthrene hydrochloride]	51	2.1	107	–	–
Cl.Clc1ccc2c(c1)OC[C@H]1CN(Cc3ccccc3)C[C@H]21 (relative stereo) [Example 18, trans-2-Benzyl-7-chloro-1,3,3a,4,9b-pentahydro-(1)-benzopyrano[3,4-c]pyrrole hydrochloride]	871	2.1	1870	–	–
CCCN1C[C@@H]2COc3ccc(OC)cc3[C@H]2C1.Cl (relative stereo) [Example 11, trans-2-Propyl-8-methoxy-1,3,3a,4,9b-pentahydro-(1)-benzopyrano[3,4-c]pyrrole hydrochloride]	4070	> 2.3	> 10000	–	–
COc1ccc2c(c1)[C@H]1CN(Cc3ccccc3)C[C@@H]1CO2.Cl (relative stereo) [Example 9, trans-2-Benzyl-8-methoxy-1,3,3a,4,9b-pentahydro-(1)-benzopyrano[3,4-c]pyrrole hydrochloride]	468	2.3	1100	–	–
C=CCN1C[C@@H]2COc3cccc(OC)c3[C@H]2C1 (relative stereo) [Example 7, trans-2-Allyl-9-methoxy-1,3,3a,4,9b-pentahydro-(1)-benzopyrano[3,4-c]pyrrol]	120	15.2	1820	–	twice that of the reference compound SB 200,646
COc1ccc2c(c1)[C@H]1CNC[C@@H]1CO2.Cl (relative stereo) [Example 10, trans-8-Methoxy-1,3,3a,4,9b-pentahydro-(1)-benzopyrano[3,4-c]pyrrole hydrochloride]	2190	> 4.8	> 10000	–	–
COc1ccc2c(c1)OC[C@@H]1CN(Cc3ccccc3)C[C@H]21 (relative stereo) [Example 21, cis-2-Benzyl-7-methoxy-1,3,3a,4,9b-pentahydro-(1)-benzopyrano[3,4-c]pyrrolehydrochloride]	871	0.7	617	–	–
Cl.c1ccc(CN2C[C@H]3COc4c(ccc5ccccc45)[C@@H]3C2)cc1 (relative stereo) [Example 34, trans-16-Benzyl-12,13,14,15,16,17-hexahydro-11-oxa-16-aza-cyclopenta[a]phenanthrene hydrochloride]	776	1.9	1480	–	–
Cl.c1ccc2c3c(ccc2c1)[C@@H]1CNC[C@@H]1CO3 (relative stereo) [Example 36, cis-12,13,14,15,16,17-Hexahydro-11-oxa-16-aza-cyclopenta[a]phenanthrene hydrochloride]	25.7	10	257	–	–
Oc1cccc2c1[C@H]1CN(Cc3ccccc3)C[C@H]1CO2 (relative stereo) [Example 14, cis-2-Benzyl-9-hydroxy-1,3,3a,4,9b-pentahydro-(1)-benzopyrano[3,4-c]pyrrolehydrochloride]	219	5.00	1100	–	–
COc1ccc2c(c1)OC[C@H]1CN(Cc3ccccc3)C[C@H]21.Cl (relative stereo) [Example 22, trans-2-Benzyl-7-methoxy-1,3,3a,4,9b-pentahydro-(1)-benzopyrano[3,4-c]pyrrole hydrochloride]	478	3.6	170	–	–
COc1cccc2c1[C@H]1CN(Cc3ccccc3)C[C@@H]1CO2.Cl (relative stereo) [Example 3, trans-2-Benzyl-9-methoxy-1,3,3a,4,9b-pentahydro-(1)-benzopyrano[3,4-c]pyrrole hydrochloride]	48	5.6	269	–	–
COc1cccc2c1[C@@H]1CNC[C@@H]1CO2.Cl (relative stereo) [Example 16, cis-9-Methoxy-1,3,3a,4,9b-pentahydro-(1)-benzopyrano[3,4-c]pyrrole hydrochloride]	263	12.6	3310	–	–
Cl.c1ccc(CN2C[C@@H]3COc4c(ccc5ccccc45)[C@@H]3C2)cc1 (relative stereo) [Example 35, cis-16-Benzyl-12,13,14,15,16,17-hexahydro-11-oxa-16-aza-cyclopenta[a]phenanthrene hydrochloride]	331	2.9	955	–	–
COc1cccc2c1[C@@H]1CN(CCNC(=O)c3ccc(F)cc3)C[C@H]1CO2 (relative stereo) [Example 8, trans-2-[3-(4-Fluorobenzoylamino)ethyl]-9-methoxy-1,3,3a,4,9b-pentahydro-(1)-benzopyrano[3,4-c]pyrrole]	107	0.9	95	–	–
CCCN1C[C@@H]2COc3cccc(OC)c3[C@H]2C1 (relative stereo) [Example 6, trans-2-Propyl-9-methoxy-1,3,3a,4,9b-pentahydro-(1)-benzopyrano[3,4-c]pyrrole]	104	16.7	1740	–	twice that of the reference compound SB 200,646
COc1cccc2c1[C@H]1CNC[C@@H]1CO2.Cl (relative stereo) [Example 4, trans-9-Methoxy-1,3,3a,4,9b-pentahydro-(1)-benzopyrano[3,4-c]pyrrole hydrochloride]	431	8.0	3470	–	–
Cl.c1ccc2c(c1)OC[C@H]1CNC[C@@H]21 (relative stereo) [Example 13, cis-1,3,3a,4,9b-Pentahydro-(1)-benzopyrano[3,4-c]pyrrole hydrochloride]	3090	> 3.33	> 10000	–	–
